Measurements published in article doi:10.1101/2023.04.18.537371v1 (bioRxiv, 2023).
Peptide text beside a SMILES is read from it.

Experiments:
CYP3A4 = test: CYP induction assay in human hepatocytes; assay type: in vitro ADME; details: cryopreserved human hepatocytes, three donors, 0.100 to 15.0 μM, 48 h, 37°C
rat hepatocytes = test: Metabolite identification in hepatocytes; assay type: in vitro ADME; details: cryopreserved rat hepatocytes, FC-12738 10 μM, 37 °C, 240 min, LC-UV-MS
CYP2C8 [1] = molecular target: T1, CYP2C8 (Homo sapiens, UniProt P10632); test: CYP450 inhibition assay; assay type: in vitro ADME
T1 sequence (P10632 1-490): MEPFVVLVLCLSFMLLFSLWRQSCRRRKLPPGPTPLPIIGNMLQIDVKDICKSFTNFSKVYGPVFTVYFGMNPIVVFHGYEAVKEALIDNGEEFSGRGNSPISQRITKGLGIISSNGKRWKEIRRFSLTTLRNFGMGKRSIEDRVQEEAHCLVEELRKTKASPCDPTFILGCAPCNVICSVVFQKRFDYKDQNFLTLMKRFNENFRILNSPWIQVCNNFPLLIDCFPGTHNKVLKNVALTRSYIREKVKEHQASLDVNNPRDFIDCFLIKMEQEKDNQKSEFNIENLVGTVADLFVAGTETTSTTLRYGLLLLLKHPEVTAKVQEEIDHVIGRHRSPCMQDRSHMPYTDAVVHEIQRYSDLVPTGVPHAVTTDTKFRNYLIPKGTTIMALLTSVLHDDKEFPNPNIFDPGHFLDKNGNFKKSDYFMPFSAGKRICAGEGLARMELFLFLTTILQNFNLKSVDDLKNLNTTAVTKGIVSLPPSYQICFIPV

[2] = In vitro protein binding, rapid equilibrium dialysis; assay type: in vitro ADME; details: SD, rat, plasma
CYP2C19 = CYP2C19 (Homo sapiens, UniProt P33261); test: CYP450 inhibition assay; assay type: in vitro ADME
CYP2C8 [3] = molecular target: T1, CYP2C8; test: CYP time-dependent inhibition assay; assay type: in vitro ADME
OATP1B1 = OATP1B1 (Homo sapiens, UniProt Q9Y6L6); test: Transporter inhibition in HEK293 cells; assay type: in vitro ADME
CYP2D6 = CYP2D6 (Homo sapiens, UniProt P10635); test: CYP450 inhibition assay; assay type: in vitro ADME
[4] = Excretion study in SD rats following single subcutaneous administration; assay type: in vivo, SD rat; details: for Accumulative Dose Recovery: 0 h, n=3, mean
CYP2B6 = assay type: in vitro ADME; details: cryopreserved human hepatocytes, three donors, 0.100 to 15.0 μM, 48 h, 37°C
MATE2-K = MATE2-K (Homo sapiens, UniProt Q86VL8); test: Transporter inhibition in HEK293 cells; assay type: in vitro ADME
[5] = Metabolite identification in liver microsomes; assay type: in vitro ADME; details: human liver microsomes, 10 μM, 37 °C, 120 min, NADPH
[6] = In vitro blood to plasma partitioning; assay type: in vitro ADME, rat; details: for Mean erythrocyte to plasma ratio KE/P: rat whole blood, 37°C, 60 min
[7] = In vitro protein binding, rapid equilibrium dialysis; assay type: in vitro ADME; details: CD-1, mouse, plasma
OCT2 = OCT2 (Homo sapiens, UniProt O15244); test: Transporter inhibition in HEK293 cells; assay type: in vitro ADME
[8] = Metabolism of FC-12738 in SD rat plasma; assay type: in vivo
human hepatocytes = test: Hepatocyte stability; assay type: in vitro ADME; details: 1.00 μM
Plasma stability = assay type: in vitro ADME, SD rat
[9] = male, SD, rat, urine, sc, 10 mg/kg
[10] = male, Sprague-Dawley, rat, bile, sc, 10 mg/kg
[11] = male, Sprague-Dawley, rat, feces, sc, 10 mg/kg
[12] = male, Sprague-Dawley, rat, urine + feces, sc, 10 mg/kg
[13] = male, Sprague-Dawley, rat, urine, sc, 10 mg/kg

CYP2D6, sequence (P10635 whole entry): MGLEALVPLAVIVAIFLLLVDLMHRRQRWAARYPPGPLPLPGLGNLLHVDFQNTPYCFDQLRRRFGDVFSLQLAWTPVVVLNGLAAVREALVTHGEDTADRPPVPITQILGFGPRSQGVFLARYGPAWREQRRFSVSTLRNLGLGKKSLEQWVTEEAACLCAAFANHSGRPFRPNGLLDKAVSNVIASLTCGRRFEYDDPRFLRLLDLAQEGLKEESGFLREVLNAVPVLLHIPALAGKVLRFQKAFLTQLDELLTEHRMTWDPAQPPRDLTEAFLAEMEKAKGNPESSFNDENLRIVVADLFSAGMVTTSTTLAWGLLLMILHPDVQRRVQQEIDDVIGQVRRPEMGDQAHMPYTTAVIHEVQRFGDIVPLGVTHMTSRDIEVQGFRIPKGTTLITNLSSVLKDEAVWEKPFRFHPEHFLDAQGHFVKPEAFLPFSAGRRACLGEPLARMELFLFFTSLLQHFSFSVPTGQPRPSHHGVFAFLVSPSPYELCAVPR
MATE2-K, sequence (Q86VL8 1-566 isoform Q86VL8-3): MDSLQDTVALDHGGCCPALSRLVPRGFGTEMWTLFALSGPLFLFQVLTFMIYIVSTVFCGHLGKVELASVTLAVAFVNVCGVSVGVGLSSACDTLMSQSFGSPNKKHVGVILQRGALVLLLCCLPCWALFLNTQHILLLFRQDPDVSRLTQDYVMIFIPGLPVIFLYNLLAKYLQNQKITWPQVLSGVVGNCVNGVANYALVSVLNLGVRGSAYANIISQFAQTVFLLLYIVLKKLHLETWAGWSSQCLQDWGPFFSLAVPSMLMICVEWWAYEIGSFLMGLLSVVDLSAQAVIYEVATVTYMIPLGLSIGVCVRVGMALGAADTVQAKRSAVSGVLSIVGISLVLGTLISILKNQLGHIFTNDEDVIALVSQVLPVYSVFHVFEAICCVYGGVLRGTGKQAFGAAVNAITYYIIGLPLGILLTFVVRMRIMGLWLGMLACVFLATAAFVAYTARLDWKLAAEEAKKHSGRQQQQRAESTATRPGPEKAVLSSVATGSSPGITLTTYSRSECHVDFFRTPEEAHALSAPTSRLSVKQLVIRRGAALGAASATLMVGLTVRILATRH
OCT2, sequence (O15244 whole entry): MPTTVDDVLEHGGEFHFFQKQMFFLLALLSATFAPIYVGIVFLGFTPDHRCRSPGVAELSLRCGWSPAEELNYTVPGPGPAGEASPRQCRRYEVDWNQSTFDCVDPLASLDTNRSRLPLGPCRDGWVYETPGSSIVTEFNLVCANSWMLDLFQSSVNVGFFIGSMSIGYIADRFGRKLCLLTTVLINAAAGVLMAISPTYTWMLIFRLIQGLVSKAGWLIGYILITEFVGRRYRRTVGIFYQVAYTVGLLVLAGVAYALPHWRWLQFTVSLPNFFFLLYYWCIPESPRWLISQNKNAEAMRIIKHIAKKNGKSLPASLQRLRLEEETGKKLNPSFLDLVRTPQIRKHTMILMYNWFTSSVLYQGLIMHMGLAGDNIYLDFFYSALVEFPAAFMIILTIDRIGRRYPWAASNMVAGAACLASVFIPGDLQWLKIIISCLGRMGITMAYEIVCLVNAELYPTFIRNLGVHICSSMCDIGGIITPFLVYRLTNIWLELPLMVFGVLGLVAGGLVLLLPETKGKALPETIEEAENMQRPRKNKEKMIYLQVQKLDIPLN
CYP2C19, sequence (P33261 whole entry): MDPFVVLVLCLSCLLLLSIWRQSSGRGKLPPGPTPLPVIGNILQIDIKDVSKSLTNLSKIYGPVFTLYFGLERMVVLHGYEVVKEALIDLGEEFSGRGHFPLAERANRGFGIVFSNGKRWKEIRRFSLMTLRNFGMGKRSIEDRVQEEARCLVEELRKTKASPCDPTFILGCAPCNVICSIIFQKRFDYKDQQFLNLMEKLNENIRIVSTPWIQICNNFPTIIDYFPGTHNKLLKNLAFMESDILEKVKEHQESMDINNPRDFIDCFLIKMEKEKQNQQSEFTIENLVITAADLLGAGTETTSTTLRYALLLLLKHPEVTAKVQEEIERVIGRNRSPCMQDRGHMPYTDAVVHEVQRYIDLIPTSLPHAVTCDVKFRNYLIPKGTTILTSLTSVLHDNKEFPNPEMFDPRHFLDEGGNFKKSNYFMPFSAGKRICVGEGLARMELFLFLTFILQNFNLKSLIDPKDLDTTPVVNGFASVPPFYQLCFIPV
OATP1B1, sequence (Q9Y6L6 whole entry, species assumed): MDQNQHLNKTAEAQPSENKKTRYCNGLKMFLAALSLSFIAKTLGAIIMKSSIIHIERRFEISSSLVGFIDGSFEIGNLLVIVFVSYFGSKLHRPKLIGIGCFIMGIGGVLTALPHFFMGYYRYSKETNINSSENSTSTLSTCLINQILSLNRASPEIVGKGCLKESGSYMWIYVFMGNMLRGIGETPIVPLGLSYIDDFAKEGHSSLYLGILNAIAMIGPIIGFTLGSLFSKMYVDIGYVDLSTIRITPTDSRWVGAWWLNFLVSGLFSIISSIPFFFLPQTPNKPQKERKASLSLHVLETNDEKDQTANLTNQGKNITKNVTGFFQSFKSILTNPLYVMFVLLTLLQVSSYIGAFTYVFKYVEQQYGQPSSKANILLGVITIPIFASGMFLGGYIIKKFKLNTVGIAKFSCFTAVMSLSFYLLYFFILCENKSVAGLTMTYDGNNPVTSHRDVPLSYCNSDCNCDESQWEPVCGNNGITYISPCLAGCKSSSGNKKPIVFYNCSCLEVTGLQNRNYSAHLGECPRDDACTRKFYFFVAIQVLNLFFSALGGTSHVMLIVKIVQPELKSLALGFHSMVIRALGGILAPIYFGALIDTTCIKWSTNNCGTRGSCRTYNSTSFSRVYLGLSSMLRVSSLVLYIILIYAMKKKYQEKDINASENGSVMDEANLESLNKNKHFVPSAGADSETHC

## CC(C)[C@@H](NC(=O)[C@H](N)Cc1ccc(O)cc1)C(=O)N[C@H](CC(=O)O)C(=O)N[C@H](CCCCN)C(=O)N[C@H](CCCNC(=N)N)C(=O)O [FC-12738, (D-Tyr)-(D-Val)-(D-Asp)-(D-Lys)-(D-Arg)] (HELM PEPTIDE1{[dY].[dV].[dD].[dK].[dR]}$$$$V2.0)
CYP3A4
  Induction of CYP3A4 (enzyme activity and gene expression): not considered as an inducer
Rat hepatocytes
  Relative Abundance (UV%): 87.56%
CYP2C8 [1]
  IC50: > 100 µM
[2]
  fraction unbound at 6 h, 0.2 µM: 0.482
  fraction unbound at 6 h, 2 µM: 0.443
  fraction unbound at 6 h, 10 µM: 0.493
CYP2C19
  IC50: > 100 µM
CYP2C8 [3]
  IC50: > 100 µM
CYP2C8 [3]; cutoff IC50 shift >= 1.5-fold, 30 min pre-incubation ± NADPH
  Time-dependent inhibition of CYP2C8: no time-dependent inhibition
OATP1B1
  IC50: > 100 µM
CYP2D6
  IC50: > 100 µM
[4]; bile, male bile-duct-cannulated SD rats, SC 10 mg/kg single
  Accumulative Dose Recovery: 0.00%
[4]; feces, male intact SD rats, SC 10 mg/kg single
  Accumulative Dose Recovery: 0.00%
[4]; male SD rats, SC 10 mg/kg single, excretion study
  Tolerability / adverse effects in-life: No adverse effect was observed
[4]; [9]
  dose excreted at 96 h: 86.4%
  dose excreted at 120 h: 86.6%
  dose excreted at 144 h: 86.7%
[4]; [10]
  dose excreted at 4 h: 0.284%
  dose excreted at 12 h: 0.314%
  dose excreted at 24 h: 0.324%
  dose excreted at 48 h: 0.331%
  dose excreted at 72 h: 0.336%
[4]; [11]
  dose excreted at 4 h: 0.00168%
  dose excreted at 8 h: 0.00239%
  dose excreted at 24 h: 1.74%
  dose excreted at 48 h: 2.08%
  dose excreted at 72 h: 2.14%
  dose excreted at 96 h: 2.16%
  dose excreted at 120 h: 2.18%
  dose excreted at 144 h: 2.19%
  dose excreted at 168 h: 2.19%
[4]; [12]
  dose excreted at 4 h: 56.2%
  dose excreted at 8 h: 78.2%
  dose excreted at 24 h: 85.8%
  dose excreted at 48 h: 88.2%
  dose excreted at 72 h: 88.5%
  dose excreted at 96 h: 88.6%
  dose excreted at 120 h: 88.7%
  dose excreted at 144 h: 88.9%
  dose excreted at 168 h: 88.9%
[4]; [13]
  dose excreted at 4 h: 56.2%
  dose excreted at 8 h: 78.2%
  dose excreted at 24 h: 84%
  dose excreted at 48 h: 86.1%
  dose excreted at 72 h: 86.4%
  dose excreted at 168 h: 86.7%
[4]; total (urine + feces), male intact SD rats, SC 10 mg/kg single
  Accumulative Dose Recovery: 0.00%
[4]; urine, male intact SD rats, SC 10 mg/kg single
  Accumulative Dose Recovery: 0.00%
CYP2B6
  Induction of CYP2B6 (enzyme activity and gene expression): not considered as an inducer
MATE2-K
  IC50: > 100 µM
[5]
  Metabolites detected: No metabolites of FC-12738 were detected
[5]; LC-UV-MS
  Relative Abundance (MS Peak Area %Total): 100.00%
[6]; 0.200 μM
  Mean erythrocyte to plasma ratio KE/P: < 0.21
[6]; 2.00 μM
  Mean erythrocyte to plasma ratio KE/P: < 0.11
[6]; 10.0 μM
  Mean erythrocyte to plasma ratio KE/P: < 0.03
[6]; rat, whole blood
  tissue to tissue ratio at 1 h, 0.2 µM: 0.48
  tissue to tissue ratio at 1 h, 2 µM: 0.5
  tissue to tissue ratio at 1 h, 10 µM: 0.47
[7]
  fraction unbound at 6 h, 0.2 µM: 0.449
  fraction unbound at 6 h, 2 µM: 0.455
  fraction unbound at 6 h, 10 µM: 0.479
OCT2
  IC50: > 100 µM
[8]; male SD rat plasma 0-2 h, IV 2 mg/kg FC-12738 single
  Relative MS abundance (%Total): 97.10%
[8]; male SD rat plasma 0-4 h, SC 10 mg/kg FC-12738 single
  Relative MS abundance (%Total): 96.57%
Human hepatocytes; cryopreserved human hepatocytes, 37.0°C, 120 min
  intrinsic clearance CLint(hep): < 1.9 μL/min/10^6 cells
Human hepatocytes; cryopreserved human hepatocytes, 37.0°C, 120 min, LC-MS/MS
  half-life: > 372.7 min
Human hepatocytes; scaled from human hepatocytes
  hepatic clearance CLint(liver): < 5.2 mL/min/kg
Plasma stability; SD rat plasma, 2.00 μM, 37.0 °C, up to 120 min
  half-life: > 372.7 min
Plasma stability; SD, rat, plasma
  remaining at 10 min, 2 μM: 104%
  remaining at 0.5 h, 2 μM: 102%
  remaining at 1 h, 2 μM: 113%
  remaining at 2 h, 2 μM: 104%
